# Read-outs that look alike come from different tables or passages of the source.
# How the values were obtained:
# [1] = test system: mice; test: insulin sensitivity in mice with chronic ingestion (FIG. 4); type: in vivo; settings: mice chronically fed high fat diet containing 0.2 wt %, vs same diet without
# [2] = test system: mice; test: body weight gain in mice with chronic ingestion (FIG. 3); type: in vivo; settings: mice chronically fed high fat diet containing 0.2 wt %, vs same diet without
# [3] = molecular target: T1, TRPV1 (Homo sapiens, UniProt Q8NER1); settings: cited from earlier work
# T1 construct: expressed in transfected cells
# T1 sequence (Q8NER1 whole entry, species assumed): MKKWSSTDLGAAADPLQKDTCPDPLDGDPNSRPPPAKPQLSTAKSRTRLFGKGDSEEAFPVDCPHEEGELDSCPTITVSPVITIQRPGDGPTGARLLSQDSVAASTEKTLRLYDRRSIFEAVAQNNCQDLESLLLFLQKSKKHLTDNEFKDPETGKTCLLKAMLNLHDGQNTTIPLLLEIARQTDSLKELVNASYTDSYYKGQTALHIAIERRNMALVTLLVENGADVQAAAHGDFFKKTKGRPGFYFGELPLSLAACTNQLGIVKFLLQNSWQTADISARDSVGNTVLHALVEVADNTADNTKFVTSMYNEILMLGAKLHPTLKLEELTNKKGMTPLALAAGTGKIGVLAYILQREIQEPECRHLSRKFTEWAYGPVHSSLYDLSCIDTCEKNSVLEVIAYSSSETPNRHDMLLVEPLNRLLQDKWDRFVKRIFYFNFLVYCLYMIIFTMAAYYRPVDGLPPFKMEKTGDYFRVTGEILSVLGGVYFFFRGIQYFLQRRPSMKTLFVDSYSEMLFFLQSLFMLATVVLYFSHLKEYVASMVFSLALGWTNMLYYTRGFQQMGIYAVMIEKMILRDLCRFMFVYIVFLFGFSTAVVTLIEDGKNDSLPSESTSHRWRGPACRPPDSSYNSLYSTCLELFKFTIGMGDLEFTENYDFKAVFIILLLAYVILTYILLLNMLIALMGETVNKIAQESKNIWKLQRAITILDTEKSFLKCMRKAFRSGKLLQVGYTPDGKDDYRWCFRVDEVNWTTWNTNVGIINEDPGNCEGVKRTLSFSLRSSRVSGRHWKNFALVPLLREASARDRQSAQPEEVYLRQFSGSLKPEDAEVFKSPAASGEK
# [4] = molecular target: T2, TRPA1 (Homo sapiens, UniProt O75762); settings: read-out: EC50 of TRPA1 activation; cited from earlier work
# T2 construct: expressed in transfected cells
# T2 sequence (O75762 whole entry, species assumed): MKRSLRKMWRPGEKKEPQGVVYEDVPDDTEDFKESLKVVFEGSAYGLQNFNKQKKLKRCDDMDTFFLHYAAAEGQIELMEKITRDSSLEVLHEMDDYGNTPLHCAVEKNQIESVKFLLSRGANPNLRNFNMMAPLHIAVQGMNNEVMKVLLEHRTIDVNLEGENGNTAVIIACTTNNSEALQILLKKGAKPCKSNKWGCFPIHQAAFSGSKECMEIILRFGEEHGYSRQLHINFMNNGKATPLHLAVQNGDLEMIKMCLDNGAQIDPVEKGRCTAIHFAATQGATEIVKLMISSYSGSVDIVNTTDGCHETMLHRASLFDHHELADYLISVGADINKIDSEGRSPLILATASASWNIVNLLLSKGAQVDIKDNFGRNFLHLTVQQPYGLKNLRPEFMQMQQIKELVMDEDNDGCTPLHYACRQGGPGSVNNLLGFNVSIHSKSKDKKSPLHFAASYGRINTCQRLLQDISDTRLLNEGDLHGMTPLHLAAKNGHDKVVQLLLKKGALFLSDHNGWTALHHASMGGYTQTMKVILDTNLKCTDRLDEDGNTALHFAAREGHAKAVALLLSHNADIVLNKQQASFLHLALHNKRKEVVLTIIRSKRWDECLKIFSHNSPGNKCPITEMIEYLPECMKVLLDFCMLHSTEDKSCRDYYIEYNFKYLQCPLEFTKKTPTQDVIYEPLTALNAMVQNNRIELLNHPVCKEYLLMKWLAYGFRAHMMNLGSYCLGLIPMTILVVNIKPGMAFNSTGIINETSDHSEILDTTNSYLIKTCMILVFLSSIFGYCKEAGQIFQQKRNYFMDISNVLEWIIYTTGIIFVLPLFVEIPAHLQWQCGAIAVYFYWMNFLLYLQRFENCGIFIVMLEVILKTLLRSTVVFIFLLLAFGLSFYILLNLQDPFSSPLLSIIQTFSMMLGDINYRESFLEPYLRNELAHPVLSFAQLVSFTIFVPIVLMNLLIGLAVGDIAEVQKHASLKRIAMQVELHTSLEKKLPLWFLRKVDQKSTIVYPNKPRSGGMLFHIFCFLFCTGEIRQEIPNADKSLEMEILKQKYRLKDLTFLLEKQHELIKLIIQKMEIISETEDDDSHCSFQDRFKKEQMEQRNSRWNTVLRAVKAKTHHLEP
# [5] = test system: mice; test: short term food intake after a single ingestion in mice (FIG. 5); type: in vivo; settings: vs sham gavage
# [6] = molecular target: T3, TRPM8 (Homo sapiens, UniProt Q7Z2W7); settings: cited from earlier work
# T3 construct: expressed in transfected cells
# T3 sequence (Q7Z2W7 whole entry): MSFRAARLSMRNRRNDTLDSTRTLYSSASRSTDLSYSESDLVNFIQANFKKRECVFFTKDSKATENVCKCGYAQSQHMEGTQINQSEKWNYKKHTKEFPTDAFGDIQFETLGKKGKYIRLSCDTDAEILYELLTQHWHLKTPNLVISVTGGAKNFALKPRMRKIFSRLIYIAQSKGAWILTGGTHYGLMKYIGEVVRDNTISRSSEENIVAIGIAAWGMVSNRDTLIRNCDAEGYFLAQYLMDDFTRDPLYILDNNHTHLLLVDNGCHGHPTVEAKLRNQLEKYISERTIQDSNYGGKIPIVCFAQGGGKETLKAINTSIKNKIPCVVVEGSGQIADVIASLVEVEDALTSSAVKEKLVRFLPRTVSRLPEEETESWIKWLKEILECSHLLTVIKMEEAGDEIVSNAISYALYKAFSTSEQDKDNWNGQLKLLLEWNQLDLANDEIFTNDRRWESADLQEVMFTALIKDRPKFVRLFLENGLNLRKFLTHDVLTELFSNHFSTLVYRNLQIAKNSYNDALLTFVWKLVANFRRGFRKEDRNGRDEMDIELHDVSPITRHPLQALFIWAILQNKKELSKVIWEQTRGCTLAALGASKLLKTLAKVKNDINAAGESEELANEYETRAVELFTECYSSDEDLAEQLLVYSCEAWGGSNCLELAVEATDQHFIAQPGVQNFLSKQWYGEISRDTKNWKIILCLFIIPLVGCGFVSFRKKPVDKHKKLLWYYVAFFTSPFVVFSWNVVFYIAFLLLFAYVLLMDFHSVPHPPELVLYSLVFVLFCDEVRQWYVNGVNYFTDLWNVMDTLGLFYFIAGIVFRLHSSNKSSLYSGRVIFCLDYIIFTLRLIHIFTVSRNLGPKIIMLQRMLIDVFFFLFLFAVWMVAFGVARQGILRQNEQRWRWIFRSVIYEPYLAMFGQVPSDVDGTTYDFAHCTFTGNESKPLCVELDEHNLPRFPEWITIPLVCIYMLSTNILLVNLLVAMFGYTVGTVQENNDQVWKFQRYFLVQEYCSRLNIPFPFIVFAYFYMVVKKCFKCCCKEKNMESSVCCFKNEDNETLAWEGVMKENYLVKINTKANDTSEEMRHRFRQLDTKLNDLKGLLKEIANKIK
# [7] = test system: mice; test: gastric emptying after a single ingestion in mice (FIG. 6); type: in vivo; settings: vs sham gavage
# [8] = molecular target: T3, TRPM8; test: desensitization of TRPM8 by pretreatment fifteen minutes before icilin (FIGS. 8A, 8B); type: cell-based; settings: applied to cells fifteen minutes before icilin
# Method: (§1) Specifically, tiglic aldehyde was applied to cells fifteen minutes before cinnamaldehyde, icilin and capsaicin, which are specific agonists for TRPA1, TRPM8 and TRPV1 cation channels, respectively. After specific agonist application, the cation channel […] was measured. […] The left bars in each graph represent the controls lacking tiglic aldehyde pretreatment, the right bars in each graph represent the samples including tiglic aldehyde pretreatment.
# [9] = molecular target: T3, TRPM8; test: in vitro activation of hTRPM8 in cells (FIG. 7); type: cell-based; settings: FIG. 7, squares
# [10] = molecular target: T1, TRPV1; test: in vitro activation of TRPV1 in cells (FIG. 7); type: cell-based; settings: FIG. 7, triangles
# [11] = molecular target: T2, TRPA1; test: desensitization of TRPA1 by pretreatment fifteen minutes before cinnamaldehyde (FIGS. 8A, 8B); type: cell-based; settings: applied to cells fifteen minutes before cinnamaldehyde
# Method: as §1
# [12] = From the text: Without wishing to be bound by theory, the present inventors believe that activation of TRPA1 is effective to 1) help to provoke the swallowing reflex of dysphagic patients, 2) decrease appetite by delaying gastric emptying, 3) reduce body weight gain, and 4) reduce glycemia by improving insulin sensitivity or glucose tolerance, 5) improve mood, memory or cognition. Tiglic aldehyde is described as having fresh, fruity, green, pulpy and almond nutty nuances (Fenaroli's Handbook of Flavor Ingredients, sixth edition), making it more pleasant compared to other TRPA1 agonists.
# [13] = test system: "empty" cells; test: in vitro activation of "empty" cells (FIG. 7); type: cell-based
# [14] = molecular target: T2, TRPA1; test: in vitro activation of TRPA1 in cells (FIG. 7); type: cell-based
# [15] = molecular target: T1, TRPV1; test: desensitization of TRPV1 by pretreatment fifteen minutes before capsaicin (FIGS. 8A, 8B); type: cell-based; settings: applied to cells fifteen minutes before capsaicin
# Method: as §1
Compound,insulin sensitivity [1],body weight gain [2],activation of TRPV1 [3],EC50 [4],short term food intake [5],activation of TRPM8 [6],gastric emptying [7],desensitization of TRPM8 [8],activation of hTRPM8 [9],activation of TRPV1 [10],desensitization of TRPA1 [11],irritancy [12],"activation of ""empty"" cells [13]","activation of TRPA1 ([14]; FIG. 7, diamonds)",efficacy of TRPA1 activation relative to cinnamaldehyde ([14]; relative to known TRPA1 agonist cinnamaldehyde),desensitization of TRPV1 [15]
O=CC=Cc1ccccc1 [cinnamaldehyde],improved insulin sensitivity,gained less weight,not,~60 µM,reduction in short term food intake,not,delayed gastric emptying,–,–,–,–,–,–,–,–,–
C/C=C(\C)C=O [tiglic aldehyde],–,–,–,–,–,–,–,does not desensitize,no activation was observed,no activation was observed,does not desensitize,not an irritant,no activation was observed,activated TRPA1 (diamonds) in a dose-dependent fashion,120%,does not desensitize

# Reference: US9801833B2, “Compositions and methods using tiglic aldehyde” (NESTEC S.A., priority 2013, dated 2017)
